The values below come from patent US20190275052A1, “COMBINATION THERAPY OF AN HBV CAPSID ASSEMBLY INHIBITOR AND A NUCLEOS(T)IDE ANALOGUE” (Hoffmann-La Roche Inc., priority 2016, published 2019).

In general, EC50 refers to the concentration giving half of the maximal effect.

Read-outs that look alike come from different tables or passages of the source.

In assay [1] the test system is HBV. The assay can be described thus: anti-HBV activity in HBV infected differentiated HepaRG cells (HBV DNA in supernatant by qPCR; checkerboard combination, isobologram model). In kind it is cell-based, HBV (genotype D). The conditions noted are these: Hepatitis B virus, 264 h, mean of 3 independent experiments. The method, then: HepG2.2.15 cells were cultured in DMEM+Glutamax I (Gibco, #21885) supplemented with 10% FBS, 1% Pen/Strep (Gibco, #15140) and G-418 (250 μg/mL) and used for production of infectious HBV (genotype D). 90% confluent cells from three T175 flasks were trypsinized and transferred into one collagen coated hyperflask (550 mL). Once the cells are confluent, medium was changed to DMEM+Glutamax I with 1% DMSO and 2.5% FBS. Once the cells were slightly over confluent, medium was changed to DMEM/F12+Glutamax I (Gibco, #31331) supplemented with MEM non-essential amino acids (6 mL, Gibco, #11140), Pen/Strep (6 mL), sodium pyruvate (6 mL), DMSO (9 mL) and FBS (10 mL) (all per 500 mL medium). Medium was changed every 3 days and supernatants were harvested for 2 weeks. Virus was concentrated from supernatants by PEG precipitation and the titer (genome equivalent (GE)/mL) was determined by qPCR. Briefly, supernatants were mixed with 40% PEG solution at a ratio of 4:1, incubated on a shaker at 4° C. overnight and then centrifuged using 50 mL falcon tubes at 4° C. for one hour at 3724 g (RCF). The supernatant was discarded and the centrifugation step was repeated with new supernatant reusing the tubes until all PEG-precipitated supernatant was processed. The pellets were re-suspended in William's E Medium (Gibco, #22551) at a concentration of 10^7-10^9 genome equivalents (GE) per mL and frozen at −80° C. DNA copy number calculation was based on a standard curve generated from HBV plasmid dilutions with known concentrations.
HepaRG cells (Biopredic International, Saint-Gregoire, France) were cultured in working growth medium (500 mL Willams E Medium with 50 mL HepaRG Growth supplement from Biopredic, 5 mL Glutamax-I (Gibco, #35050) and 5 mL Pen/Strep) for 2 weeks. After 2 weeks medium was changed to differentiation medium containing 1.8% DMSO (500 mL Willams E Medium with 50 mL HepaRG Growth supplement from Biopredic, 5 mL Pen/Strep, 5 mL Glutamax-I and 9 mL DMSO). Medium was changed twice a week up to 2 weeks. Once fully differentiated, cells were trypsinized and seeded into collagenated 96 well plates (50,000 cells/well in 100 μL) in differentiation medium. Cells were cultured at least 5 days in the 96 well plates before they were infected with HBV.
For HBV infection of differentiated HepaRG cells, differentiation medium was removed and new differentiation medium (120 μL/well) containing 4% PEG-8000 and virus stock (20 to 30 GE/cell) was added. Cells were cultured at 37° C. for 16 to 20 h before medium was removed, cells were washed 4 times with PBS and new differentiation medium (120 μL/well) was added.
At day 4 post infection, medium was removed and 100 μL new differentiation medium was added to each well. 3-fold serial dilutions (5 μL compound to 10 μL DMSO) of Drug A and Drug B were prepared in 100% DMSO starting with 15 μL undiluted compound solution (400-fold concentration of highest test concentration). 5 μL of drug A and B dilutions were then added to 990 μL medium (containing 0.8% DMSO) in a 96 deep well plate in a fashion according to the design shown in Table 3. 100 μL thereof were added to the HepaRG cells with a final DMSO concentration of 1.8%. Drug A tested was Compound 6; Drug B tested was Compound 1, Compound 2, Compound 3, Compound 4 or Compound 5. The concentration ranges tested were 1 nM to 0.01 nM for Compound 6, and 300 nM to 0.412 nM for Compound 1 to 5. Medium was replaced by new medium with compound at day 7 post infection and at day 11 post infection cell supernatants were harvested and directly used for HBV DNA extraction or stored at −20° C. Cell viability of the cells was determined using the cell viability assay described below.
HBV DNA from HepaRG cell supernatants was extracted using the MagNA Pure 96 (Roche) robot. 100 μL of the supernatants were mixed in a processing cartridge with 200 μL MagNA Pure 96 external lysis buffer (Roche, Cat. No. 06374913001) and incubated for 10 minutes. […]
(In general: Real-time PCR tracks product formation cycle by cycle.)

In assay [2] the test system is HBV. The settings on record: HBV infected transgenic or humanized mice; Deres 2003, Brezillon 2011; cited from earlier work.
[3] abbreviates: individual compound alone, from the combination studies, HBV DNA in supernatant day 11 post infection, read-out: EC50 ± SD (n) Drug A.

For the molecule `COC(=O)C1=C(CN2CCN3C(=O)N(CC(C)(C)C(=O)O)CC3C2)NC(c2nccs2)=N[C@H]1c1ccc(F)cc1Cl` (stereo in doubt) [Compound 5, 3-[(8aS)-7-[[(4R)-4-(2-chloro-4-fluoro-phenyl)-5-methoxycarbonyl-2-thiazol-2-yl-1,4-dihydropyrimidin-6-yl]methyl]-3-oxo-5,6,8,8a-tetrahydro-1H-imidazo[1,5-a]pyrazin-2-yl]-2,2-dimethyl-propanoic acid], the EC50 in the assay on HBV [1] (setting [3]) was found to be 24.8 nM.
`COC(=O)C1=C(C)NC(c2ncc(F)cc2F)=N[C@H]1c1ccc(F)cc1Cl` [Bay 41-4109]: the “in vivo efficacy (HBV DNA reduction)” value in the assay with HBV [2] is listed as “demonstrated in vivo efficacy with HBV DNA reduction”.
Turning to `COC(=O)C1=C(CN2CCOC[C@H]2C(=O)O)NC(c2nccs2)=N[C@H]1c1ccc(F)cc1Cl` [Compound 1, (S)-4-[(R)-6-(2-Chloro-4-fluoro-phenyl)-5-methoxycarbonyl-2-thiazol-2-yl-3,6-dihydro-pyrimidin-4-ylmethyl]-morpholine-3-carboxylic acid], the EC50 with HBV [1] (setting [3]) amounted to 19.9 nM.
On to `CCOC(=O)C1=C(CN2CCN3C(=O)N(CC(C)(C)C(=O)O)C[C@@H]3C2)NC(c2nccs2)=N[C@H]1c1cccc(F)c1C` [Compound 2, 3-[(8aS)-7-[[(4S)-5-ethoxycarbonyl-4-(3-fluoro-2-methyl-phenyl)-2-thiazol-2-yl-1,4-dihydropyrimidin-6-yl]methyl]-3-oxo-5,6,8,8a-tetrahydro-1H-imidazo[1,5-a]pyrazin-2-yl]-2,2-dimethyl-propanoic acid], for which, in the assay with HBV [1] (setting [3]), the EC50 came to 5.8 nM.
Consider `CCOC(=O)C1=C(CN2CCN3C(=O)N(CC(C)(C)C(=O)O)C[C@@H]3C2)NC(c2nccs2)=N[C@H]1c1cccc(F)c1Cl` [Compound 3, 3-[(8aS)-7-[[(4R)-4-(2-chloro-3-fluoro-phenyl)-5-ethoxycarbonyl-2-thiazol-2-yl-1,4-dihydropyrimidin-6-yl]methyl]-3-oxo-5,6,8,8a-tetrahydro-1H-imidazo[1,5-a]pyrazin-2-yl]-2,2-dimethyl-propanoic acid], for which the EC50 in the assay with HBV [1] (setting [3]) was 7.5 nM.
With `COC(=O)C1=C(CN2CCN3C(=O)N(CC(C)(C)CC(=O)O)C[C@@H]3C2)NC(c2nccs2)=N[C@H]1c1ccc(F)cc1Cl` [Compound 4, 4-[(8aS)-7-[[(4R)-4-(2-chloro-4-fluoro-phenyl)-5-methoxycarbonyl-2-thiazol-2-yl-1,4-dihydropyrimidin-6-yl]methyl]-3-oxo-5,6,8,8a-tetrahydro-1H-imidazo[1,5-a]pyrazin-2-yl]-3,3-dimethyl-butanoic acid], the EC50 in the assay with HBV [1] (setting [3]) came to 16.2 nM.
Regarding `C=C1[C@H](CO)[C@@H](O)C[C@@H]1n1cnc2c(=O)[nH]c(N)nc21` [Compound 6, Entecavir, reference compound], the EC50 with HBV [1] (Compound 6 alone, from the combination study with the Drug A of the same row, HBV DNA day 11 post infection, read-out: EC50 ± SD (n) Drug B) is 0.07 nM.
